# Data published in patent publication US8933270B2, “Use of docasatrienes, resolvins, and their stable analogs in the treatment of airway diseases and asthma” (The Brigham and Women's Hospital, Inc., priority 2002, dated 2015).
# What was measured:
# [1] = system: airway hyper-responsiveness; experiment: OVA model: airway responsiveness to inhaled methacholine (lung resistance); type: in vivo, FvB mice; conditions: PD1 0-200 ng; methacholine 0, 20, 50, 75 mg
# Procedure: Because increased airway reactivity is a diagnostic hallmark of asthma, it was also determined if PD 1 regulated airway hyper-responsiveness to inhaled methacholine. After allergen sensitization and aerosol challenge in the presence of PD 1 (0-200 ng), animals were ventilated and exposed (10 sec) to increasing concentrations of inhaled methacholine (0, 20, 50 and 75 mg).
# Five to seven week old male FvB mice (Charles River Laboratories, Wilmington, Mass.) were housed in isolation cages under viral antibody-free conditions. Mice were fed a standard diet (Laboratory Rodent Diet 5001, PMI Nutrition International, Richmond, Ind.) that contained no less than 4.5% total fat with 0.26% omega-3 fatty acids and <0.01% C20:4. […] On day 18, 24 h after the last aerosol challenge, airway responsiveness to aerosolized methacholine (0, 20, 50 and 75 mg, 10 sec) was measured, bilateral bronchoalveolar lavage (BAL) (2 aliquots of 1 ml PBS plus 0.6 mM EDTA) was performed or tissues were harvested for histological analysis. Lung resistance was measured using a Flexivent ventilator (SciReq, Montreal, Quebec). Resistance was measured as a function of time for each animal, and peak and average values for each dose of methacholine were recorded. […]
# [2] = system: BALF cytokines and lipid mediators; experiment: OVA model: inflammatory mediators in BAL fluid by ELISA; type: in vivo, FvB mice
# Text: (§1) Five to seven week old male FvB mice (Charles River Laboratories, Wilmington, Mass.) were housed in isolation cages under viral antibody-free conditions. Mice were fed a standard diet (Laboratory Rodent Diet 5001, PMI Nutrition International, Richmond, Ind.) that contained no less than 4.5% total fat with 0.26% omega-3 fatty acids and <0.01% C20:4. After Harvard Medical Area IRB approval (Protocol #02570), mice were sensitized with intraperitoneal injections of ovalbumin (OVA) (Grade III; Sigma Chemical Co., St. Louis, Mo.) (10 μg) plus 1 mg aluminum hydroxide (ALUM) (J. T. Baker Chemical Co.; Phillipsburg, N.J.) as adjuvant in 0.2 ml PBS on days 0 and 7. On days 14, 15, 16 and 17, the mice received PD1 (2, 20 or 200 ng), Resolvin E1 (200 ng) (products of biogenic synthesis (Hong, Gronert et al. 2003)), or PBS with 1.6 mM CaCl2 and 1.6 mM MgCl2 (0.1 ml) by intravenous injection 30 min prior to an aerosol challenge containing either PBS or 6% OVA for 25 min/day. On day 18, 24 h after the last aerosol challenge, airway responsiveness to aerosolized methacholine (0, 20, 50 and 75 mg, 10 sec) was measured, bilateral bronchoalveolar lavage (BAL) (2 aliquots of 1 ml PBS plus 0.6 mM EDTA) was performed or tissues were harvested for histological analysis. Lung resistance was measured using a Flexivent ventilator (SciReq, Montreal, Quebec). Resistance was measured as a function of time for each animal, and peak and average values for each dose of methacholine were recorded. No BAL or histological analysis was performed on those animals undergoing airway hyper-responsiveness or lipid extraction studies.
# (§2) Tissue morphometry was performed by a member (K. Haley) of the Lung Histopathology Core Laboratory at Brigham and Women's Hospital who was blinded to the experimental conditions prior to histological analyses. Three fields per slide were examined at 200× magnification for vessels, large airways and alveoli with EOS counted at 400× magnification in randomly assigned fields. Vessels were identified by perivascular smooth muscle, and large airways were identified by at least ½ their diameter either cuboidal or columnar epithelia. Measurement of inflammatory mediators was determined in cell-free BAL fluid (2000 g, 10 min) by sensitive and specific ELISAs, in tandem, for interleukin-5 (IL-5), IL-12, IL-13, PGD2 (R&D Systems, Minneapolis, Minn.), cysteinyl LTs, (Cayman Chemical Co, Ann Arbor, Mich.), and LXA4 (Neogen, Lexington, Ky.). Cells in BALF were resuspended in PBS, enumerated by hemocytometer, and concentrated onto microscope slides by cytocentrifuge (STATspin) (265 g). Cells were stained with a Wright-Giemsa stain (Sigma Chemical Co.) to determine leukocyte differentials (after counting ≧200 cells).
# PMN infiltration = experiment: Zymosan A-induced peritonitis; type: in vivo, FVB mice; conditions: i.v. bolus before zymosan A, lavage at 2 h
# Procedure: FIG. 5 depicts Bioimpact properties of omega-3-derived Resolvins. A) Human glioma cells: Inhibition of TNF-stimulated IL-1β transcripts DBTRG-05MG cells 10^6/ml were stimulated with 50 ng/ml of human recombinant TNFα for 16 hours to induce expression of IL-1β transcripts. Concentration dependence with COX-2 products: 17-HDHA (n), 13-HDHA (l)and di-/tri-HDHA (n). […] (insets) Results are representative of RT-PCR gels of MG cells exposed to 100 nM of 13-HDHA or 17-HDHA and graphed after normalization of the IL-1β transcripts using GAPDH. B) Influence of eicosanoids and docosanoids on fMLP-induced neutrophil migration across micovascular endothelial monolayers Neutrophils (1×10^6 cells/monolayer) were exposed to vehicle containing buffer, or indicated concentrations of aspirin-triggered LXA4 analog (closed diamonds) 5S,12,18R-triHEPE (closed squares), 17R-HDHA (closed circles) or 13-HDHA (closed triangles) for 15 minutes at 37° C. Neutrophils were then layered on HMVEC monolayers and stimulated to transmigrate by a 10^−8 M fMLP gradient for 1 hr at 37° C. Transmigration was assessed by quantitation of the neutrophil marker myeloperoxidase. Results are presented as mean±SEM number of PMN (n=8-12 monolayers per condition). C) Reduction of PMN in murine peritonitis and skin pouch peritonitis: Compounds (100 ng in 120 μL sterile saline) were injected by intravenous bolus injection into the mouse tail vein and followed by 1 ml zymosan A (1 mg/ml) into the peritoneum. Peritoneal lavages were collected (2 h) and cell types were enumerated.
# Human PMN transendothelial migration was quantitated by monitoring myeloperoxidase (MPO) an azurophilic granule marker as in (34, 37). Inflammatory exudates were initiated with intrapouch injection of recombinant mouse TNFα (100 ng/pouch; R&D Systems) into dorsal air pouches (10) of 6-8 wk male FVB mice fed laboratory rodent diet 5001 (Lab Diet, Purina Mills) containing less than 0.25% arachidonic acid, 1.49% EPA and 1.86% DHA followed by ASA (500 μg) at 3.5 h and 300 μg DHA/pouch at 4 h post-TNFα injection. At 6 h (within the resolution phase), pouches were lavaged (3 ml saline) and exudate cells were enumerated Inhibition of TNFα stimulated (100 ng/pouch) PMN infiltration with i.v. tail injection of either 17R-HDHA (as prepared with COX-2 vide infra), 5S,12,18R-HEPE, or a 15-epi-LXA4 analog were determined with pouch lavages taken at 4 h. Peritonitis was performed using 6 to 8-week-old FVB male mice (Charles River Laboratories) fed laboratory Rodent Diet 5001 (Purina Mills) that were anesthetized with isoflurane, and compounds to be tested (125 μl) were administered intravenously. Zymosan A in 1 ml (1 mg/ml) was injected ˜1-1.5 min later in the peritoneum. Each test compound (100 ng/incubation, i.e. 17R-HDHA in ethanol) or vehicle alone was suspended in ˜5 μl and mixed in sterile saline 120 μl. Two hours after the intraperitoneal injections, and in accordance with the Harvard Medical Area Standing Committee on Animals protocol #02570, mice were euthanized and peritoneal lavages rapidly collected for enumeration.
# Peritonitis was induced in 6 to 8 week old male FVB mice by peritoneal injection of 1 mg Zymosan A. Compounds 4,17S and 10,17S-diHDHA were injected by intravenous bolus injection, 1.5 minutes before Zymosan A treatment. Two hours after induction of peritonitis, rapid peritoneal lavages were collected and cell type enumeration was performed.
# [3] = system: airway leukocyte accumulation; experiment: OVA sensitization and aerosol challenge: lung histology and BAL leukocytes; type: in vivo
# Procedure: To determine if PD1 and Resolvin E1 had properties of a counter-regulatory mediator during airway inflammation, physiologically relevant quantities (2, 20 or 200 ng) were administered by intravenous injection to allergen sensitized animals just prior (30 min) to aerosol challenge on 4 consecutive days. […] In conjunction with decreased airway inflammation, levels of the counter-regulatory eicosanoid LXA4 were also […] in the presence of PD1 (data not shown).
# as §1, §2
# [4] = i.v. 30 min before aerosol challenge on 4 days
structure (smiles),measurement,setting,value
"CC/C=C\C[C@H](O)\C=C/C=C/C=C/C(O)C/C=C\C/C=C\CCC(=O)O (stereo in doubt) [PD1, 10,17S-dihydroxy-4,7,15,19-cis-11,13-trans-docosahexaenoic acid]",peak and average lung resistance in response to methacholine,[1],decreased both peak and average lung resistance
same,IL-12 levels,[2]; BAL fluid,no significant effect
same,allergen-induced increase in CysLTs,[2]; BAL fluid,blocked allergen-induced increases
same,allergen-induced increase in IL-13,[2]; BAL fluid,blocked allergen-induced increases
same,allergen-induced increase in PGD2,[2]; BAL fluid,blocked allergen-induced increases
same,potency of inhibitory concentrations relative to the LX analog,[2]; IL-13 and CysLT generation,1 to 2 log orders
same,levels of LXA4,[2]; data not shown,diminished
same,inhibition of PMN/leukocyte infiltration,"PMN infiltration; listed as 10,17S-docosatrienes",potent inhibition
same,inhibition of PMN/leukocyte infiltration,"PMN infiltration; listed as 10,17 di-HDHA",inhibited
same,eosinophil and lymphs (FIG. 25),"[3]; 10,17-DT 20 ng and 200 ng, Resolvin E1 200 ng",reduced
same,"total leukocytes, EOS and Lymphs in BAL fluid","[3]; PD1 2, 20 or 200 ng, Resolvin E1 200 ng i.v.",decreased
same,behavioral or physical signs of toxicity,"[3]; PD1 treatment, nanogram quantities i.v.",No behavioral or physical signs of toxicity
same,lowest dose reducing TH2 lymphocyte activation / eosinophil recruitment,[3]; i.v.,2 ng
same,"EOS tissue infiltration around vessels, large and peripheral airways (morphometry)",[3]; [4],significant decreases
same,edema and epithelial hyperplasia,[3]; [4],markedly decreased
same,eosinophils and lymphocytes in peribronchiolar regions and airspaces,"[3]; i.v. 30 min before aerosol challenge on 4 days, vs vehicle",substantially less
